US10787448B2, “Indolizino [3,2-C] quinoline-based fluorescent probe” (SEOUL NATIONAL UNIVERSITY R & DB FOUNDATION, priority 2015, dated 2020)
“Also recorded” adds a separate entry of the source.

Experiments:
[1] = target: Human Serum Albumin (HSA) (Homo sapiens, UniProt P02768); experiment: Protein binding by fluorescence change (FRET, Job's plot, titration, quantum yield)
Protocol: Using a fluorescence spectrophotometer, it was confirmed whether the indolizino[3,2-c]quinoline compound of the present invention binds to a protein. Specifically, among the indolizino[3,2-c]quinoline compounds, 13 types of compounds with high fluorescence in a Tris buffer (pH 7.5) were added to Bovine Serum Albumin (BSA) and Human Serum Albumin (HSA) to observe a fluorescence change.

[2] = Photostability of fluorescence in aqueous solution or ethanol (natural light, blue light); type: physicochemical; settings: aqueous solution; for stability of fluorescence under irradiation with blue light: blue light for 2 hours; for photostability: fluorescence over time: natural light, up to 6 hours
Protocol: As a candidate material that can be applied to a fluorescent probe, to confirm how long fluorescence persists in materials with high fluorescence intensity in an aqueous solution among the indolizino[3,2-c]quinoline compounds, photostability according to time in an aqueous solution or ethanol solvent was evaluated as follows.
First, fluorescence of a corresponding material was measured using a cuvette, and the fluorescence per time for the cuvette sample was remeasured until 6 to 7 hours in a natural light state so as to confirm fluorescence stability.
Further, from the above example, when the indolizino[3,2-c]quinoline compounds including the IQ 3, 4, 6 and 8 compounds in which the fluorescence is stably maintained in an aqueous solution for approximately 6 hours are represented by Formula X, some materials in which neither A, B, C nor D ring has a substituent were selected and irradiated with blue light in an aqueous solution, and then a stability experiment was carried out to confirm the maintenance of the fluorescence.

HeLa cells = experiment: Cell permeability: fluorescence imaging and live cell confocal imaging; type: cell-based
Protocol: HeLa cells were seeded in a 96-well plate and incubated for 24 hours. The cells were treated with the indolizino[3,2-c]quinoline compounds, and incubated at 37° C. under a 5% CO2 condition for 30 minutes. After removal of the medium, the cells were washed with 1×DPBS. The washed cells were fixed with 4% formaldehyde at room temperature for 10 minutes, and washed with 1×DPBS. A cell image was screened using an Operetta HTS imaging system (PerkinElmer).
After HeLa cells were seeded to account for 70 to 80% of the area of a confocal dish (SPL life science) and overnight cultured, the indolizino[3,2-c]quinoline compounds (10 μM) prepared by mixing fresh DMEM after removal of the existing DMEM medium were dispensed, and the cells were incubated for 30 minutes to 1 hour at 37° C. Afterward, if needed, LysoTracker (50 nM) was mixed with DMEM to remove the existing medium and then dispensed to the cells, and the cells were incubated for 30 minutes at 37° C. After incubation, without washing, the cells were examined by a confocal laser microscope (Leica TCS SP8 SMD, Leica, Mannheim, Germany). However, when co-stained with a LysoTracker, the cells were washed with DPBS twice before the microscopy. […]

[3] = Analysis of optical characteristics (absorption, fluorescence emission, quantum yield) in solvents; type: physicochemical; settings: for Fluorescence Emission Intensity / Peak emission wavelength λmax em(nm) / Relative fluorescence Emission Intensitynorm: H2O at 2 μM; for Peak emission wavelength λmax em(nm): excited at the longest absorption maxima; for Relative fluorescence Emission Intensitynorm: normalized fluorescence intensity
Protocol: Fluorescence emission spectra were obtained at 20° C. using a JASCO FP-6500 spectrofluorometer, a 10 mM stock solution prepared by dissolving an indolizino[3,2-c]quinoline compound in DMSO was diluted in a solvent. […] Absorption spectra were recorded at room temperature using a Perkin Elmer Lamda 20 UV/VIS spectrometer. […]
Further, the compounds (excluding Entry #51-57, etc.) of Formula 1 were subjected to spectrum analyses in various solvents, and the results are shown in Tables 6 and 7, and FIGS. 5C and 5D.

cells = experiment: Co-staining / co-localization with DAPI, MitoTracker or LysoTracker; type: cell-based; settings: for organelle selectivity by co-localization: MitoTracker or LysoTracker
[4] = tested on: DNA oligomers (48 bp) tetO sequences; experiment: Binding to DNA by fluorescence spectrophotometer; settings: hybridized tetO DNA oligomers added, 1 minute incubation
Protocol: Using a fluorescence spectrophotometer, it was confirmed whether the indolizino[3,2-c]quinoline compound of the present invention binds to DNA. First, DNA oligomers (48 bp) used in the experiment are tetO sequences, and the base sequences thereof are as follows.
The same molarities of oligomers were mixed while being heated at 95° C. for 5 minutes and cooled to room temperature for 2 hours to hybridize, the fluorescence of each of the indolizino[3,2-c]quinoline compounds of the present invention was measured, a corresponding equivalent of DNA oligomer was added to a cuvette, and then incubated while blocking light for 1 minute to measure fluorescence again.

Sequence of Human Serum Albumin (HSA) (P02768 25-609): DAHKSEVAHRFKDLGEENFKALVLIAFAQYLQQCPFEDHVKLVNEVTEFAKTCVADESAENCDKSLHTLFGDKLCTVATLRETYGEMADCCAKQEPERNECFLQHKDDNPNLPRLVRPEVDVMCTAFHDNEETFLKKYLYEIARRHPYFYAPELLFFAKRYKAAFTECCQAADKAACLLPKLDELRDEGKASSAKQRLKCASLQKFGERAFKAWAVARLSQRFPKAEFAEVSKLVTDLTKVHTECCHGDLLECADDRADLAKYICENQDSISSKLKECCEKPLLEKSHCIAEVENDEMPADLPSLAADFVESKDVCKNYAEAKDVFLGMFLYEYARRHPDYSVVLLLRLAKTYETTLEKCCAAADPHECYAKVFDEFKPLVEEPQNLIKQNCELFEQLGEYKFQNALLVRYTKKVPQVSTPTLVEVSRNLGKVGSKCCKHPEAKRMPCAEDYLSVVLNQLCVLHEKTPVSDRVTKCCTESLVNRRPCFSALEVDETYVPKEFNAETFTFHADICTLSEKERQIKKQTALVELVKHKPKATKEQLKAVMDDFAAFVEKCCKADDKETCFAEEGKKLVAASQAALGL

## Cc1ccc(-c2nc3ccccc3c3cc4ccccn4c23)cc1 [IQ 3, 6-(p-tolyl)indolizino[3,2-c]quinoline]
[1]
  fluorescence change on binding to HSA: increasing fluorescence intensity
[2]
  stability of fluorescence under irradiation with blue light: still stably exhibited fluorescence intensity
  photostability: fluorescence over time: stably maintained in an aqueous solution up to 6 hours with almost no change

## c1ccc(-c2nc3ccccc3c3cc4ccccn4c23)cc1 [IQ 4, 6-phenylindolizino[3,2-c]quinoline]
[1]
  fluorescence change on binding to HSA: increasing fluorescence intensity
[2]
  stability of fluorescence under irradiation with blue light: still stably exhibited fluorescence intensity
  photostability: fluorescence over time: stably maintained in an aqueous solution up to 6 hours with almost no change

## c1ccc(-c2nc3ccccc3c3cc4ccccn4c23)nc1 [IQ 5, 6-(pyridin-2-yl)indolizino[3,2-c]quinoline]
[2]
  stability of fluorescence under irradiation with blue light: still stably exhibited fluorescence intensity

## COc1cc(OC)cc(-c2nc3ccccc3c3cc4ccccn4c23)c1 [IQ 7, 6-(3,5-Dimethoxyphenyl)indolizino[3,2-c]quinoline]
[1]
  fluorescence change on binding to HSA: fluorescence intensity became higher than the fluorescence of the material; also recorded: increasing fluorescence intensity
  quantum yield (QY) when bound to HSA: 0.43
[1]; excited at 280 nm
  emission after adding 1 equiv. of the compound to HSA: approximately 450 nm
  emission of the compound: approximately 500 nm
[1]; excited at 280 nm, 1 equiv. of compound
  FRET with HSA: fluorescence resonance energy transfer (FRET) phenomenon occurred
[1]; titration
  Kd: 1890 nM
HeLa cells; HeLa cells
  intracellular organelles in which fluorescence is detected: stained intensively in the nuclear area

## COc1ccc(-c2nc3ccccc3c3cc4ccccn4c23)cc1OC [IQ 8, 6-(3,4-dimethoxyphenyl)indolizino[3,2-c]quinoline]
[1]
  fluorescence change on binding to HSA: increasing fluorescence intensity
[2]
  photostability: fluorescence over time: stably maintained in an aqueous solution up to 6 hours with almost no change
HeLa cells; HeLa cells
  intracellular organelles in which fluorescence is detected: stained intensively in the nuclear area

## c1ccc2c(-c3nc4ccccc4c4cc5ccccn5c34)cccc2c1 [IQ 9, 6-(naphthalen-1-yl)indolizino[3,2-c]quinoline]
[1]
  fluorescence change on binding to HSA: increasing fluorescence intensity
[3]
  fluorescence (intensity, in words): strong fluorescence
  solvent-dependent (environment-sensitive) tendency of the emission: solvatochromic effect
[3]; aqueous solution (H2O)
  peak emission (λmax): 465.5 nm
[3]; ethanol solvent (EtOH)
  peak emission (λmax): 516 nm
[3]; in ethanol using coumarin 153 as a standard
  quantum yield: 0.402

## c1ccc2cc(-c3nc4ccccc4c4cc5ccccn5c34)ccc2c1 [IQ 10, 6-(naphthalen-2-yl)indolizino[3,2-c]quinoline]
[1]
  fluorescence change on binding to HSA: increasing fluorescence intensity

## COc1ccc(-c2nc3ccccc3c3cc4c(C)cccn4c23)cc1OC [IQ 17, 6-(3,4-dimethoxyphenyl)-11-methylindolizino[3,2-c]quinoline]
[1]
  fluorescence change on binding to HSA: increasing fluorescence intensity
  quantum yield (QY) when bound to HSA: 0.4
HeLa cells; HeLa cells
  intracellular molecule recognized: recognized DNA
  intracellular organelles in which fluorescence is detected: stained intensively in the nuclear area

## Cc1cccn2c1cc1c3ccccc3nc(-c3ccco3)c12 [IQ 18, 6-(furan-2-yl)-11-methylindolizino[3,2-c]quinoline]
cells
  fluorescence change on light irradiation: increasing fluorescence by receiving light; also recorded: fluorescence is increased
  organelle selectivity by co-localization: selectively stains the mitochondria
cells; co-localization experiment with MitoTracker
  Pearson's coefficient: ≥ 0.8
[4]
  change in fluorescence intensity on addition of DNA oligomer: gradually decreased
  shift of maximum emission wavelength on addition of DNA oligomer: shorter wavelength
HeLa cells; HeLa cells
  intracellular organelles in which fluorescence is detected: distributed in the mitochondria

## COc1ccc(-c2nc3ccccc3c3c(Cl)c4ccccn4c23)cc1 [IQ 40, 12-chloro-6-(4-methoxyphenypindolizino[3,2-c]quinoline]
[1]
  fluorescence change on binding to HSA: increasing fluorescence intensity

## COc1ccc(-c2nc3ccccc3c3cc4cc(/C=C/c5ccccc5)ccn4c23)cc1 [IQ-B19, (E)-6-(4-methoxyphenyl)-10-styrylindolizino[3,2-c]quinoline]
[3]
  fluorescence (intensity, in words): high fluorescence in other solvents as well as an aqueous solution
cells
  organelle selectivity by co-localization: selectively present in the lysosome

## COc1ccc(-c2nc3ccccc3c3cc4cc(-c5ccc(N(C)C)cc5)ccn4c23)cc1 [IQ-B37, 4-(6-(4-methoxyphenyl)indolizino[3,2-c]quinolin-10-yl)-N,N-dimethylaniline]
[3]; Table 7
  λex(nm): 432 nm
HeLa cells; live HeLa cells, ex 514 nm, em 519 nm and ex 561 nm, em 566 nm
  detection with yellow and red wavelength filters: detected

## COc1ccc(-c2nc3ccccc3c3cc4c(C)cccn4c23)cc1OC [compound 17]
[3]
  Maximum absorption wavelength λmax abs(nm): 391 nm
  Fluorescence Emission Intensity: 31.7
  Peak emission wavelength λmax em(nm): 524.5 nm
  Relative fluorescence Emission Intensitynorm: 0.14
[3]; DW, standard Rhodamine 6G
  quantum yield (Φ): 0.065
[3]; EtOH, standard Coumarin 153
  quantum yield (Φ): 0.604
[4]
  shift of maximum emission wavelength on addition of DNA oligomer: wavelength to longer wavelength

## Cc1cccn2c1cc1c3ccccc3nc(-c3ccco3)c12 [compound 18]
[3]
  Maximum absorption wavelength λmax abs(nm): 400 nm
  Fluorescence Emission Intensity: 15.0
  Peak emission wavelength λmax em(nm): 523.5 nm
  Relative fluorescence Emission Intensitynorm: 0.06
[3]; DW, standard Rhodamine 6G
  quantum yield (Φ): 0.008
[3]; EtOH, standard Coumarin 153
  quantum yield (Φ): 0.421
[4]
  shift of maximum emission wavelength on addition of DNA oligomer: wavelength to shorter wavelength

## COC(=O)c1c2c3ccccc3nc(-c3cc(OC)cc(OC)c3)c2n2ccccc12 [compound 19]
[3]; DW, standard Rhodamine 6G
  quantum yield (Φ): 0.060
[3]; EtOH, standard Coumarin 153
  quantum yield (Φ): 0.222
[3]
  Fluorescence Emission Intensity: 80.5
  Peak emission wavelength λmax em(nm): 478 nm
  Relative fluorescence Emission Intensitynorm: 0.35
[4]
  shift of maximum emission wavelength on addition of DNA oligomer: wavelength to shorter wavelength

## CN(C)c1ccc(-c2nc3ccccc3c3cc4ccccn4c23)cc1 [compound 36]
[3]; DW, standard Rhodamine 6G
  quantum yield (Φ): 0.006
[3]; EtOH, standard Coumarin 153
  quantum yield (Φ): 0.386
[4]
  shift of maximum emission wavelength on addition of DNA oligomer: wavelength to longer wavelength

## CCN(CC)c1ccc(-c2nc3ccccc3c3cc4ccccn4c23)cc1 [compound 37]
[3]; DW, standard Rhodamine 6G
  quantum yield (Φ): 0.001
[3]; EtOH, standard Coumarin 153
  quantum yield (Φ): 0.324
[4]
  shift of maximum emission wavelength on addition of DNA oligomer: wavelength to longer wavelength

## COc1ccc(-c2nc3ccccc3c3c(Cl)c4ccccn4c23)cc1 [compound 40]
[3]; DW, standard Rhodamine 6G
  quantum yield (Φ): 0.142
[3]; EtOH, standard Coumarin 153
  quantum yield (Φ): 0.624
[4]
  change in fluorescence intensity on addition of DNA oligomer: Increase in fluorescence intensity

## c1csc(-c2nc3ccccc3c3cc4ccccn4c23)c1 [compound 42]
[4]
  shift of maximum emission wavelength on addition of DNA oligomer: wavelength to shorter wavelength

## COC(=O)c1c2c3ccccc3nc(-c3cccs3)c2n2ccccc12 [compound 44]
[3]; DW, standard Rhodamine 6G
  quantum yield (Φ): 0.010
[3]; EtOH, standard Coumarin 153
  quantum yield (Φ): 0.050
[4]
  shift of maximum emission wavelength on addition of DNA oligomer: wavelength to shorter wavelength

## COc1ccc(-c2nc3ccccc3c3c(-c4ccc(F)cc4)c4ccccn4c23)cc1 [compound 45]
[3]; DW, standard Rhodamine 6G
  quantum yield (Φ): 0.033
[3]; EtOH, standard Coumarin 153
  quantum yield (Φ): 0.557
[4]
  change in fluorescence intensity on addition of DNA oligomer: No change in fluorescence intensity

## COc1ccc(-c2nc3ccccc3c3c(-c4ccc(Cl)cc4)c4ccccn4c23)cc1 [compound 46]
[3]; DW, standard Rhodamine 6G
  quantum yield (Φ): 0.039
[3]; EtOH, standard Coumarin 153
  quantum yield (Φ): 0.604
[4]
  change in fluorescence intensity on addition of DNA oligomer: No change in fluorescence intensity
